In one test the target is human PDE1B enzyme (Homo sapiens (Human), UniProt Q01064). As to the kind of experiment: IMAP TR-FRET PDE1B enzymatic assay. Type of test: biochemical. The settings on record: negative log of half-maximal molar inhibitory concentration; 200 nM FAM-cAMP; values given as bins. Summed up:
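Full-length GST-tagged human PDE1B (250 pg/well) in IMAP BSA buffer with 10 U/ml calmodulin and 2.5 mM CaCl2; compound pre-incubated 5 min at room temperature, then 200 nM (final) FAM-cAMP for 30 min. IMAP binding reagent/Tb added, 1 h; TR-FRET 520/490 ratio read. IC50 from sigmoidal dose-response fit.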
On to `COc1cc(CNC(=O)c2c(C)oc3ncnc(NC4(C)CC4)c23)ncn1` [Example 666, N-[(6-Methoxypyrimidin-4-yl)methyl]-6-methyl-4-[(1-methylcyclopropyl)amino]furo[2,3-d]pyrimidine-5-carboxamide], for which the “PDE1b (pIC50)” value was more than 8. The same measure, in the same setting: in the case of `COc1cc(CNC(=O)c2c(C)oc3ncnc(NC4(C)CC4)c23)nc(C)n1` [Example 667, N-[(6-Methoxy-2-methylpyrimidin-4-yl)methyl]-6-methyl-4-[(1-methylcyclopropyl)amino]furo[2,3-d]pyrimidine-5-carboxamide] it was more than 8. On the same count and under the same terms, in the case of `Cc1oc2ncnc(NC3(C)CC3)c2c1C(=O)NCc1cc(C2CC2)ncn1` [Example 686, N-[(6-Cyclopropylpyrimidin-4-yl)methyl]-6-methyl-4-[(1-methylcyclopropyl)amino]furo[2,3-d]pyrimidine-5-carboxamide] it was more than 8.

Staying with this test, now noted: negative log of half-maximal molar inhibitory concentration; 200 nM FAM-cAMP; values given as bins; read-out: PDE1b (pIC50) (converted).
`Cc1oc2ncnc(NC3(C)CC3)c2c1C(=O)NC1CCN(c2ncccn2)CC1` [Example 665, 6-Methyl-4-[(1-methylcyclopropyl)amino]-N-[1-(pyrimidin-2-yl)piperidin-4-yl]furo[2,3-d]pyrimidine-5-carboxamide]: the IC50 is 0.01 to 0.1 µM. The same measure, in the same setting: next, `Cc1oc2ncnc(NC3(C)CC3)c2c1C(=O)N1CCc2cnccc2C1` [Example 668, 6-Methyl-N-(1-methylcyclopropyl)-5-(1,2,3,4-tetrahydro-2,6-naphthyridine-2-carbonyl)furo[2,3-d]pyrimidin-4-amine]: 0.01 to 0.1 µM; `Cc1oc2ncnc(NC3(C)CC3)c2c1C(=O)NC1CCN(c2ccccn2)C1` (centres unmarked) [Example 669, 6-Methyl-4-[(1-methylcyclopropyl)amino]-N-[1-(pyridin-2-yl)pyrrolidin-3-yl]furo[2,3-d]pyrimidine-5-carboxamide]: 0.01 to 0.1 µM; `Cc1nccc(N2CCC(NC(=O)c3c(C)oc4ncnc(NC5(C)CC5)c34)CC2)n1` [Example 670, 6-Methyl-4-[(1-methylcyclopropyl)amino]-N-[1-(2-methylpyrimidin-4-yl)piperidin-4-yl]furo[2,3-d]pyrimidine-5-carboxamide]: 0.1 to 1 µM. On the same count and under the same terms, next, `Cc1cc(N2CCC(NC(=O)c3c(C)oc4ncnc(NC5(C)CC5)c34)CC2)ncn1` [Example 671, 6-Methyl-4-[(1-methylcyclopropyl)amino]-N-[1-(6-methylpyrimidin-4-yl)piperidin-4-yl]furo[2,3-d]pyrimidine-5-carboxamide]: 0.1 to 1 µM; `Cc1cc(N2CCC(NC(=O)c3c(C)oc4ncnc(NC5(C)CC5)c34)CC2)nc(C)n1` [Example 672, N-[1-(2,6-Dimethylpyrimidin-4-yl)piperidin-4-yl]-6-methyl-4-[(1-methylcyclopropyl)amino]furo[2,3-d]pyrimidine-5-carboxamide]: 0.1 to 1 µM; `Cc1ncc(CNC(=O)c2c(C)oc3ncnc(NC4(C)CC4)c23)c(=O)[nH]1` [Example 673, 6-Methyl-N-[(2-methyl-6-oxo-1,6-dihydropyrimidin-5-yl)methyl]-4-[(1-methylcyclopropyl)amino]furo[2,3-d]pyrimidine-5-carboxamide]: 0.01 to 0.1 µM. For `Cc1oc2ncnc(NC3(C)CC3)c2c1C(=O)NCc1ccnc(-n2ccnc2)c1` [Example 674, N-{[2-(1H-Imidazol-1-yl)pyridin-4-yl]methyl}-6-methyl-4-[(1-methylcyclopropyl)amino]furo[2,3-d]pyrimidine-5-carboxamide], the IC50 was 0.01 to 0.1 µM. The same measure, in the same setting: in the case of `Cc1oc2ncnc(NC3(C)CC3)c2c1C(=O)NCc1ccnc(N2CCOCC2)c1` [Example 675, 6-Methyl-4-[(1-methylcyclopropyl)amino]-N-{[2-(morpholin-4-yl)pyridin-4-yl]methyl}furo[2,3-d]pyrimidine-5-carboxamide] it was 0.01 to 0.1 µM. Same read-out and setting: in the case of `COc1nc(C)ncc1CNC(=O)c1c(C)oc2ncnc(NC3(C)CC3)c12` [Example 676, N-[(4-Methoxy-2-methylpyrimidin-5-yl)methyl]-6-methyl-4-[(1-methylcyclopropyl)amino]furo[2,3-d]pyrimidine-5-carboxamide] it was 0.01 to 0.1 µM; in that of `Cc1oc2ncnc(NC3(C)CC3)c2c1C(=O)NCc1ccnc(Cl)n1` [Example 677, N-[(2-Chloropyrimidin-4-yl)methyl]-6-methyl-4-[(1-methylcyclopropyl)amino]furo[2,3-d]pyrimidine-5-carboxamide], 0.01 to 0.1 µM.

In the case of `COc1ccc(CNC(=O)c2c(C)oc3ncnc(NC4(C)CC4)c23)nc1F` [Example 678, N-[(6-Fluoro-5-methoxypyridin-2-yl)methyl]-6-methyl-4-[(1-methylcyclopropyl)amino]furo[2,3-d]pyrimidine-5-carboxamide], the IC50 is 0.01 to 0.1 µM. Still for that read-out and setting: next, `Cc1ncc(CNC(=O)c2c(C)oc3ncnc(NC4(C)CC4)c23)cn1` [Example 679, 6-Methyl-4-[(1-methylcyclopropyl)amino]-N-[(2-methylpyrimidin-5-yl)methyl]furo[2,3-d]pyrimidine-5-carboxamide]: 0.01 to 0.1 µM; `Cc1oc2ncnc(NC3(C)CC3)c2c1C(=O)NCc1nccc(C(F)(F)F)n1` [Example 680, 6-Methyl-4-[(1-methylcyclopropyl)amino]-N-{[4-(trifluoromethyl)pyrimidin-2-yl]methyl}furo[2,3-d]pyrimidine-5-carboxamide]: 0.01 to 0.1 µM. Same read-out and setting: next, `Cc1oc2ncnc(NC3(C)CC3)c2c1C(=O)N1Cc2nc(C3CC3)[nH]c(=O)c2C1` [Example 681, 2-Cyclopropyl-6-{6-methyl-4-[(1-methylcyclopropyl)amino]furo[2,3-d]pyrimidine-5-carbonyl}-3H,4H,5H,6H,7H-pyrrolo[3,4-d]pyrimidin-4-one]: 0.1 to 1 µM.

For the compound `Cc1oc2ncnc(NC3(C)CC3)c2c1C(=O)N1Cc2nc(C(C)C)[nH]c(=O)c2C1` [Example 682, 6-{6-Methyl-4-[(1-methylcyclopropyl)amino]furo[2,3-d]pyrimidine-5-carbonyl}-2-(propan-2-yl)-3H,4H,5H,6H,7H-pyrrolo[3,4-d]pyrimidin-4-one], the IC50 is 0.1 to 1 µM. On the same count and under the same terms, next, `Cc1oc2ncnc(NC3(C)CC3)c2c1C(=O)N1CCn2nccc2C1` [Example 683, 6-Methyl-N-(1-methylcyclopropyl)-5-{4H,5H,6H,7H-pyrazolo[1,5-a]pyrazine-5-carbonyl}furo[2,3-d]pyrimidin-4-amine]: 0.01 to 0.1 µM; `Cc1oc2ncnc(NC3(C)CC3)c2c1C(=O)N1CCn2c(cnc2C2CC2)C1` [Example 684, 5-{3-Cyclopropyl-5H,6H,7H,8H-imidazo[1,5-a]pyrazine-7-carbonyl}-6-methyl-N-(1-methylcyclopropyl)furo[2,3-d]pyrimidin-4-amine]: 0.1 to 1 µM. On the same count and under the same terms, in the case of `COc1cc(CN(C)C(=O)c2c(C)oc3ncnc(NC4(C)CC4)c23)ncn1` [Example 685, N-[(6-Methoxypyrimidin-4-yl)methyl]-N,6-dimethyl-4-[(1-methylcyclopropyl)amino]furo[2,3-d]pyrimidine-5-carboxamide] it was 0.1 to 1 µM.

Consider `COc1nc(C2CC2)nc2c1CN(C(=O)c1c(C)oc3ncnc(NC4(C)CC4)c13)C2` [Example 687, 5-{2-Cyclopropyl-4-methoxy-5H,6H,7H-pyrrolo[3,4-d]pyrimidine-6-carbonyl}-6-methyl-N-(1-methylcyclopropyl)furo[2,3-d]pyrimidin-4-amine], for which the IC50 was 0.01 to 0.1 µM.

These data come from US20250145633A1, “SUBSTITUTED FURANOPYRIMIDINE COMPOUNDS AS PDE1 INHIBITORS” (Dart NeuroScience, LLC, priority 2017, published 2025).
